Measured values: the NIST ThermoML archive (doi:10.1021/acs.jced.8b01097)

Experiment: xn = mol fraction of the nth substance listed
Settings: 85 kPa, Liquid; for viscosity: Concentric cylinders viscometry; for mass density: Vibrating tube method

NCCCO [3-amino-1-propanol] + CCC(C)O
Settings | mass density [kg/m3] | viscosity [mPa·s]
293.15 K, x2 = 0 | 987.8 | 37.33
293.15 K, x2 = 0.081 | 971.2 | 30.36
293.15 K, x2 = 0.1607 | 955.5 | 25.31
293.15 K, x2 = 0.2395 | 940.2 | 20.96
293.15 K, x2 = 0.3499 | 919.3 | 15.85
293.15 K, x2 = 0.4394 | 902.8 | 12.63
293.15 K, x2 = 0.5602 | 881 | 9.361
293.15 K, x2 = 0.658 | 863.9 | 7.574
293.15 K, x2 = 0.7408 | 849.7 | 6.103
293.15 K, x2 = 0.8511 | 830.9 | 4.795
293.15 K, x2 = 0.9396 | 816.2 | 4.079
298.15 K, x2 = 0 | 984.3 | 28.59
298.15 K, x2 = 0.081 | 967.8 | 23.43
298.15 K, x2 = 0.1607 | 951.9 | 19.73
298.15 K, x2 = 0.2395 | 936.6 | 16.46
298.15 K, x2 = 0.3499 | 915.6 | 12.59
298.15 K, x2 = 0.4394 | 899 | 10.15
298.15 K, x2 = 0.5602 | 877.2 | 7.634
298.15 K, x2 = 0.658 | 860 | 6.253
298.15 K, x2 = 0.7408 | 845.7 | 5.076
298.15 K, x2 = 0.8511 | 827 | 4.016
298.15 K, x2 = 0.9396 | 812.2 | 3.403
303.15 K, x2 = 0 | 980.3 | 22.31
303.15 K, x2 = 0.081 | 964 | 18.39
303.15 K, x2 = 0.1607 | 948.1 | 15.6
303.15 K, x2 = 0.2395 | 932.7 | 13.11
303.15 K, x2 = 0.3499 | 911.6 | 10.15
303.15 K, x2 = 0.4394 | 895 | 8.261
303.15 K, x2 = 0.5602 | 873.2 | 6.309
303.15 K, x2 = 0.658 | 856 | 5.213
303.15 K, x2 = 0.7408 | 841.7 | 4.261
303.15 K, x2 = 0.8511 | 823 | 3.377
303.15 K, x2 = 0.9396 | 808.2 | 2.853
308.15 K, x2 = 0 | 976.2 | 17.67
308.15 K, x2 = 0.081 | 959.9 | 14.66
308.15 K, x2 = 0.1607 | 944.2 | 12.51
308.15 K, x2 = 0.2395 | 928.7 | 10.58
308.15 K, x2 = 0.3499 | 907.6 | 8.29
308.15 K, x2 = 0.4394 | 890.9 | 6.808
308.15 K, x2 = 0.5602 | 869 | 5.251
308.15 K, x2 = 0.658 | 851.9 | 4.371
308.15 K, x2 = 0.7408 | 837.6 | 3.604
308.15 K, x2 = 0.8511 | 818.9 | 2.866
308.15 K, x2 = 0.9396 | 803.9 | 2.411
313.15 K, x2 = 0 | 972.3 | 14.21
313.15 K, x2 = 0.081 | 956.1 | 11.85
313.15 K, x2 = 0.1607 | 940.2 | 10.16
313.15 K, x2 = 0.2395 | 924.9 | 8.658
313.15 K, x2 = 0.3499 | 903.7 | 6.856
313.15 K, x2 = 0.4394 | 886.9 | 5.676
313.15 K, x2 = 0.5602 | 865 | 4.422
313.15 K, x2 = 0.658 | 847.8 | 3.715
313.15 K, x2 = 0.7408 | 833.5 | 3.07
313.15 K, x2 = 0.8511 | 814.7 | 2.446
313.15 K, x2 = 0.9396 | 799.6 | 2.053
318.15 K, x2 = 0 | 968.5 | 11.58
318.15 K, x2 = 0.081 | 952.4 | 9.715
318.15 K, x2 = 0.1607 | 936.6 | 8.364
318.15 K, x2 = 0.2395 | 921.1 | 7.173
318.15 K, x2 = 0.3499 | 899.8 | 5.733
318.15 K, x2 = 0.4394 | 882.9 | 4.781
318.15 K, x2 = 0.5602 | 860.9 | 3.758
318.15 K, x2 = 0.658 | 843.6 | 3.174
318.15 K, x2 = 0.7408 | 829.3 | 2.634
318.15 K, x2 = 0.8511 | 810.4 | 2.103
318.15 K, x2 = 0.9396 | 795.2 | 1.76
323.15 K, x2 = 0 | 964.9 | 9.546
323.15 K, x2 = 0.081 | 948.9 | 8.057
323.15 K, x2 = 0.1607 | 933 | 6.971
323.15 K, x2 = 0.2395 | 917.5 | 6.012
323.15 K, x2 = 0.3499 | 896.1 | 4.85
323.15 K, x2 = 0.4394 | 879.2 | 4.064
323.15 K, x2 = 0.5602 | 857 | 3.228
323.15 K, x2 = 0.658 | 839.7 | 2.731
323.15 K, x2 = 0.7408 | 825.2 | 2.275
323.15 K, x2 = 0.8511 | 806.1 | 1.82
323.15 K, x2 = 0.9396 | 790.8 | 1.519
